Results: US9487749B2 (priority 2009, dated 2016)
“And” between values parts separate entries of the source, which are not always exact repeats. Equal entries are not always repeated.

Legend:
[1] = test system: Salmonella typhimurium; experiment: USP Antimicrobial Effectiveness Test (AET) of MSM supplemented TSB; assay type: cell-based; set-up: key: Colonies too numerous to count (TNTC); details: 48 hrs
[2] = test system: E. coli; experiment: E. coli log growth in MSM supplemented Müller-Hinton media with or without NaCl; assay type: cell-based, Escherichia coli
Method: Standard Müller-Hinton media was compared to Müller-Hinton media supplemented with NaCl to the same level as the saline-based media of Example 4. […] Aliquots of each culture were taken at 24 and 48 hours, as well as 7 days.

[3] = test system: Lactobacillus rhamnosus; experiment: Growth of Lactobacillus rhamnosus in MRS broth fortified with MSM; assay type: cell-based; details: for Growth (colony forming units): 0.04% MSM in MRS broth, 0-72 hours
Method: Each organism (Lactobacillus rhamnosus, Lactobacillus acidophilus, and Bifidobacterium bifidum) was grown in MRS bacterial growth medium (broth) and plated on MRS agar at different time intervals. Results are expressed in colony forming units per milliliter (cfu/mL). […] All bacterial organisms were incubated at 35° C. +/−2° C. for the duration of the study. […] All preparations and plating were conducted at room temperature. […] Test samples were plated in triplicate at each test date and the averages are reported.

[4] = test system: Bacillus coagulans; experiment: Viability and colony formation of Bacillus coagulans supplemented with MSM (population count, weight, percent transmittance); assay type: cell-based; details: for Population Count Average / Population Weight Average: 72 hours; for Population Weight Average: washed pellet; for percent transmittance: 25×25 mm agar section, 546 nm
Method: At the end of the 72 hours, the broth was measured for colony formation, with photographic documentation of colony formation on tryptic soy agar. […] For the Bacillus coagulans, the organism was isolated and grown for 24 hours before harvesting. […] One milliliter of Dilution B was used to inoculate the 30 mL of TSB concentrations stated above. […] Each dilution for the microorganism was plated in triplicate for each sample. To capture the appropriate colonies per milliliter, the microorganism was plated at six different dilutions. […] The population count was based on the dilution of the tryptic soy broth after 72 hours and inoculation on to tryptic soy agar plates. The plates were incubated for 48 hours and enumerated. The tryptic soy broth after 72 hours was centrifuged down in a conical vial. The supernatant was pulled off and the pellet was washed. The centrifuging and washing was repeated three times. At the end of the third wash, the vials with pellet were weighed. Each vial was weighed empty and recorded. The corresponding vial weight was then subtracted from the ending weight of the pellet and vial, to get the weight of the Bacillus coagulans population. […] The slides were sealed to prevent the agar plug from slipping. The wavelength was set at 546 nm, and two empty slides were used as a blank. […] The weights indicated a heavier growth or a colony that was larger in size adding to the weight of the biomass. The percent transmittance was used to indicate Bacillus coagulans colony size in which a decrease in transmittance indicates an increase in colony size as the colony inhibited light from passing through the agar. […] It was observed that the percent transmittance result may be influenced by the sample size, sample location and agar variables.

[5] = test system: Lactobacillus acidophilus ATCC #4356; experiment: Lactobacillus acidophilus growth and recovery in a simulated intestinal tract environment; assay type: cell-based
[6] = test system: Acidophilus plus Bifidus milk microorganisms; experiment: Growth in Acidophilus plus Bifidus milk fortified with MSM; assay type: cell-based; details: A/B milk
Source text: 31, 2013. […] The Acidophilus milk was low fat (Darigold).

[7] = test system: Swine-like H1N1 Influenza A virus strain A/California/04/2009; assay type: cell-based
[8] = test system: Rhinovirus type 14 (ATCC #VR-284); assay type: cell-based
[9] = test system: Vero cells (ATCC#CCL-81)
[10] = test system: Acidophilus plus Bifidus milk microorganisms; experiment: Growth in Acidophilus plus Bifidus milk fortified with MSM; assay type: cell-based; details: A/B milk; remark: listed apart in the source
[11] = test system: MDCK cells (ATCC # CCL-34); experiment: Cytotoxicity of MSM on host cells; details: for Test Product Cytotoxicity: MDCK
Method: Determination of test product cytotoxicity. The highest non-cytotoxic concentration of the test product was determined prior to the test.
B. Toxicity Control for Pre-Treatment Test.

CS(C)(=O)=O [MSM, Methylsulfonylmethane]
AET test results (microorganism count) ([1]; 1:100 dilution of MSM in TSB): TNTC
AET test results (microorganism count) ([1]; 1:1000 dilution of MSM in TSB): TNTC
log reduction in E. coli ([2]; FMHS media, 12% MSM, 7 days): 3 log
reduction of E. coli growth ([2]; MSM concentrations greater than 13%, 48 hours): 1-2 logs
Log growth of E. coli ([2]; after 24 hours, FMH (flaked MSM, Müller-Hinton), rows 16-5% MSM): 6.2 log
log reduction from the initial inoculum ([2]; all media, MSM concentrations greater than 13%, 24 hours): approximately 1 log
Growth (colony forming units) ([3]; 0 hours of incubation): 1.7 × 10^6 cfu/mL
Growth (colony forming units) ([3]; 12 hours of incubation): 2.1 × 10^7 cfu/mL
Growth (colony forming units) ([3]; 24 hours of incubation): 1.5 × 10^9 cfu/mL
Growth (colony forming units) ([3]; 36 hours of incubation): 1.8 × 10^9 cfu/mL
Growth (colony forming units) ([3]; 48 hours of incubation): 2.1 × 10^9 cfu/mL
Growth (colony forming units) ([3]; 60 hours of incubation): 2.6 × 10^9 cfu/mL
recovery higher than the 0% control ([3]; 0.2% MSM, first 12 hours): 41%
recovery higher than the 0% control ([3]; 1% MSM, first 12 hours): 47%
recovery more than the 0% control ([3]; all MSM samples, first 12 hours): at least 12%
Population Count Average ([4]; 1.0% MSM in TSB): 1.01 × 10^11
Population Weight Average ([4]; 1.0% MSM in TSB): 0.1363
percent transmittance ([4]; 1.0% MSM): 51.5%
Population Count Average ([4]; 5.0% MSM in TSB): 2.8 × 10^11
Population Weight Average ([4]; 5.0% MSM in TSB): 0.1260
percent transmittance ([4]; 5.0% MSM): 45.6%
Population Count Average ([4]; […] MSM in TSB): 3.3 × 10^11
Population Weight Average ([4]; […] MSM in TSB): 0.9828
percent transmittance ([4]; […] MSM): 49.8%
log increase in the next 8 hours after hour 48 ([5]; 5.0% MSM): 3.16 logs
time to substantial growth rate increase after hour 24 ([5]; 5.0% MSM): 6 h
log growth of Lactobacillus acidophilus ([5]; 5.0% MSM, hour 36): 8.65 logs
Log Growth of Lactobacillus acidophilus ([5]; 5.0% MSM, 20 min Gastric): <1.00 log
Log Growth of Lactobacillus acidophilus ([5]; 5.0% MSM, Hour 3, simulated intestinal fluid): 1.62 log
Log Growth of Lactobacillus acidophilus ([5]; 5.0% MSM, Hour 8, simulated intestinal fluid): 2.33 log
Log Growth of Lactobacillus acidophilus ([5]; 5.0% MSM, Hour 24, simulated intestinal fluid): 6.39 log
Log Growth of Lactobacillus acidophilus ([5]; 5.0% MSM, Hour 30, simulated intestinal fluid): 6.63 log
Log Growth of Lactobacillus acidophilus ([5]; 5.0% MSM, Hour 36, simulated intestinal fluid): 8.65 log
Log Growth of Lactobacillus acidophilus ([5]; 5.0% MSM, Hour 48, simulated intestinal fluid): 10.17 log
Log Growth of Lactobacillus acidophilus ([5]; 5.0% MSM, Hour 54, simulated intestinal fluid): 13.33 log
Log Growth of Lactobacillus acidophilus ([5]; 5.0% MSM, Hour 60, simulated intestinal fluid): 12.76 log
Log Growth of Lactobacillus acidophilus ([5]; 5.0% MSM, Hour 72, simulated intestinal fluid): 12.78 log
Log Growth of Lactobacillus acidophilus ([5]; 5.0% MSM, Starting Inoculum (milk)): 7.02 log
log increase in the next 8 hours after hour 48 ([5]; […] MSM): 2.07 logs
Log Growth of Lactobacillus acidophilus ([5]; […] MSM, 20 min Gastric): <1.00 log
Log Growth of Lactobacillus acidophilus ([5]; […] MSM, Starting Inoculum (milk)): 6.86 log
Log Growth of Lactobacillus acidophilus in Milk fortified with MSM ([6]; Day 7): 10.42 log
Log Growth of Lactobacillus acidophilus in Milk fortified with MSM ([6]; Day 21): 5.37 log
Log Growth of Lactobacillus acidophilus in Milk fortified with MSM ([6]; Day 28): 3.94 log
Log Growth of Lactobacillus acidophilus in Milk fortified with MSM ([6]; hour 32): 8.87 log
Log Growth of Lactobacillus acidophilus in Milk fortified with MSM ([6]; hour 48): 8.3 log
Log Growth of Lactobacillus acidophilus in Milk fortified with MSM ([6]; hour 72): 8.45 log
Log Growth of Lactobacillus acidophilus in Milk fortified with MSM ([6]; hour 80): 9.82 log
Average Log Stimulation [7]: 0.17 log10
Average Percent Stimulation [7]: 32.39%
Average TCID50 [7]: 3.67 log10 and 4.42 log10 and 4.67 log10 and 5.00 log10 and 4.58 log10 and 4.17 log10
Log Stimulation [7]: 0.17 log10
Percent Stimulation [7]: 32.39%
TCID50 [7]: 3.75 log10 and 3.50 log10 and 4.00 log10 and 4.50 log10 and 4.25 log10 and 4.75 log10 and 5.00 log10
log10 reduction [7]: 0.66 log10 and 0.41 log10
reduction of virus population [7]: more than 1.0 log10
Average Log Stimulation [8]: 0.053 log10 and 0.11 log10
Average Percent Stimulation [8]: 11.49% and 22.38%
Average TCID50 [8]: 4.42 log10 and 5.00 log10 and 5.58 log10 and 5.42 log10 and 5.67 log10 and 5.25 log10
Log Stimulation [8]: 0.08 log10 and 0.00 log10 and 0.17 log10
TCID50 [8]: 4.25 log10 and 4.50 log10 and 4.75 log10 and 5.00 log10 and 5.25 log10 and 5.50 log10 and 6.00 log10 and 5.75 log10
Test Product Cytotoxicity [9]: 00
Log Growth of Lactobacillus acidophilus in Milk fortified with MSM ([10]; hour 0): 6.41 log
Log Growth of Lactobacillus acidophilus in Milk fortified with MSM ([10]; hour 8): 8.67 log
Log Growth of Lactobacillus acidophilus in Milk fortified with MSM ([10]; hour 24): 9.16 log
Log Growth of Lactobacillus acidophilus in Milk fortified with MSM ([10]; hour 56): 8.56 log
Log Growth of Lactobacillus acidophilus in Milk fortified with MSM ([10]; hour 96): 8.61 log
Log Growth of Lactobacillus acidophilus in Milk fortified with MSM ([10]; hour 104): 8.92 log
Test Product Cytotoxicity ([11]; 0.5%): 00
Test Product Cytotoxicity ([11]; 1%): 00
Test Product Cytotoxicity ([11]; 2%): 00
Test Product Cytotoxicity ([11]; 3%): 00
Test Product Cytotoxicity ([11]; 4%): 00
Test Product Cytotoxicity ([11]; 5%): 00
cytotoxic effect ([11]; MSM concentrations 6% through 0.5%): no visible cytotoxic effect
